Patent EP0207193A2, “Synergetic combination of flupirtin and 4-acetamido-phenol” (Degussa Aktiengesellschaft, priority 1985, dated 1987)
Read-outs that look alike come from different tables or passages of the source.

System: Albino-Ratte
Assay: Randall-Selitto test (analgesic effect, determination of synergism)
Assay type: in vivo
Details: per os; for Steigerung der analgetischen Wirksamkeit um den Faktor: ED50 alone versus ED50 in the combination, rat; for ED50: Rattus norvegicus, po
Source text: Die erfindungsgemäße Komtination zeigt beispielsweise im Randall-Selitto-Test einen Synergismus der analgetischen Wirkung, die gegenüber der Analgesie des reinen Flupirtin (Das Fiupirt^in wird stets als Maleat, Gluconat oder Hydrochlorid untersucht.) und dem reinen 4-Acetamido-phenol überadditiv gesteigert ist.
Die Wirkung der erfindungsgemäßen Kombination geht beispielsweise aus folgenden Versuchen hervor: Diese Untersuchungen erfolgten im Randall-Selitto-Test an der Albino-Ratte. Hierbei wird sowohl die Flupirtin-Dosis (Hydrochlorid) konstant gehalten, als auch bei konstanter Dosis des 4-Acetamido-phenols die Flupirtin-. Dosis geändert und jeweils im ersten Fall die ED50 der analgetischen Wirkung des 4-Acetamido-phenols und im zweiten Fall die analgetische Hauptwirkung des Flupirtins in der Kombination bestimmt (Methode der Bestimmung des Synergismus nach Forth, Henschler und Rummel, Lehrbuch Pharmakologie und Toxikologie, Ausgabe 1980, Seite 65; Wissenschaftsverlag, Bibliographisches Institut Mannheim, Wien und Zürich).
So wird beispielsweise in dem vorstehend angegebenen Test die analgetisch wirksame ED50 des Flupirtins von 30,94 mg/kg per os auf 1,65 mg/kg und die analgetisch wirksame ED50 des 4-Acetamido-phenols (Paracetamol) von 71,47 mg/kg auf 0,6 mg/kg per os gesenkt. In diesem Test erfolgt also eine Steigerung der analgetischen Wirksamkeit des Flupirtins um den Faktor 18 und hinsichtlich der analgetischen Wirkung des Paracetamols um den Faktor 119.

In the case of CC(=O)Nc1ccc(O)cc1 [4-Acetamido-phenol], the “Steigerung der analgetischen Wirksamkeit um den Faktor” value is reported as 119, the ED50 (4-Acetamido-phenol alone, read-out: analgetisch wirksame ED50 des 4-Acetamido-phenols (Paracetamol)) is reported as 71.5 mg/kg and the ED50 (4-Acetamido-phenol in combination with a constant dose of Flupirtin (hydrochloride), read-out: analgetisch wirksame ED50 des 4-Acetamido-phenols (Paracetamol)) is reported as 0.6 mg/kg.
With CCOC(=O)Nc1ccc(NCc2ccc(F)cc2)nc1N [Flupirtin, 2-Amino-3-carbethoxyamino-6-(4-fluor-be-nzylamino)-pyridin] the “Steigerung der analgetischen Wirksamkeit um den Faktor” value was 18, the ED50 (Flupirtin (hydrochloride) in combination with a constant dose of 4-Acetamido-phenol, read-out: analgetisch wirksame ED50 des Flupirtins) was 1.65 mg/kg and the ED50 (Flupirtin alone (hydrochloride), read-out: analgetisch wirksame ED50 des Flupirtins) was 30.9 mg/kg.
